According to patent US9265751B2, “Methods for treating chronic pain” (Nagasaki University, priority 2008, dated 2016):
“Also recorded” adds a separate entry of the source.

Key:
Assay type in all cases: in vivo, mouse
LPA2 receptor = assay: Mechanical stimulus-induced pain test (digitized von Frey) in SART (ICS) stress mice given LPA2 AS-ODN/MS-ODN i.c.v.
LPA1 receptor = assay: Mechanical stimulus-induced pain test (digitized von Frey) in SART (ICS) stress mice given LPA1 AS-ODN/MS-ODN i.c.v.
Description: Exposure to SART (ICS) stress was achieved by repeatedly altering extremely different rearing environmental temperatures. Temperature settings were established at room temperature (24° C.) and cold temperature (4° C.). Rearing cages were placed in environments set at the respective temperatures; the animals were reared, with transfer of the mice only every 30 minutes in the daytime (from 10:00 to 16:30), and at the cold temperature in the nighttime (from 16:30 to 10:00 on the following day). This repeated stress was given for 3 days from 16:30 on the day before stress loading to 10:00 on day 3 of stress loading. A solid food and agar for water supply were always kept in the cage during the above-described stress loading period, to maintain an environment allowing the animals to have free access thereto.
A hypersensitive response induction experiment with ICS stress was applied to mice previously dosed with an antisense oligodeoxynucleotide that complementarily binds to the lysophosphatidic acid (hereinafter, denoted as LPA) receptor gene to inhibit the expression thereof (hereinafter, denoted as AS-ODN) as an animal model of generalized pain disease, and the stress exposure of Production Example 1 was performed.
Ten to twelve C57BL/6J mice at 6 weeks of age (20 to 22 g) were used in a normal control group and an ICS stress loading group.
Using “5′-[…]-3′ (SEQ ID NO:5)” as AS-ODN, BLAST search was performed; it was confirmed that the sequence thereof was specific for the LPA1 receptor. For comparative control, mice dosed with a missense oligodeoxynucleotide having a noncomplementary sequence (hereinafter, denoted as MS-ODN) and mice dosed with artificial cerebro-spinal fluid (ACSF) as Vehicle were used. Using “5′-[…]-3′ (SEQ ID NO:6)” as MS-ODN, BLAST search was performed; it was confirmed that the sequence thereof was not similar to other receptors.
SART (ICS) stress based on Production Example 1 above was loaded on the mice after being given ODN and ACSF, after which pain threshold values were measured, and changes over days were examined.
In Example 3, chronic pains were evaluated on mice loaded with stress based on Production Example and Examples. Regarding how to evaluate chronic pains, pain threshold values were evaluated over days by a mechanical stimulus-induced pain test. The mechanical stimulus-induced pain test was performed according to the digitized von Frey method.
AS-ODN was given by intracerebroventricular administration at 10 μg once daily, starting five days before SART (ICS) stress loading. After pretreatment for 5 consecutive days, SART (ICS) stress was started, and intracerebroventricular administration was performed once a day even during the stress loading period. However, there was no administration on day 3 of stress loading, after which administration was discontinued; a total of 7 administrations were performed. The single-dose volume was 5 μl.
In the same way as the above-described method of treatment, MS-ODN and Vehicle were administered 7 times in total before stress loading and during the stress loading period.
On mice acclimated to the environment on a 5 mm×5 mm-mesh net (adaptation-applied), a custom-made plastic chip was applied to a planta of each mouse under a constant pressure from below. At that time, responding weight threshold values were measured digitally.

ATX = assay: Mechanical nociception test (automated digitized von Frey) in ICS stress mice given ATX-AS/ATX-MS i.c.v.; conditions: P1 to P12 after ICS stress; 10 μg/5 μl i.c.v.
Description: ATX-antisense is a drug that suppresses the synthesis of the mRNA of ATX, an LPA synthetase. The ATX-antisense (ATX-AS) used was designed to have the base sequence: “5′-GTCTTGCCATGCCGAGGGAT-3′ (SEQ ID NO:13)”, and the ATX-missense (ATX-MS) used was designed to have the base sequence: “5′-GTTCTCGCAGTCGCAGGAGT-3′ (SEQ ID NO:14)”. The dosage was 10 μg/5 μl both for the antisense and for the missense.
ATX-antisense (operon, 3170003) was given by intracerebroventricular administration on consecutive days starting five days previously, including days of stress loading (FIG. 8A). Doses were given in solution in artificial cerebro-spinal fluid. For control groups, the same amounts of ATX-missense (operon, 3170004) and the solvent were administered, respectively. […]
(§1) Prior to the experiment, each mouse was placed on a rack on a mesh and covered with a cage from above, and the animal was acclimated to the same environment as the experiment for not less than 1 hour. The tip of a plastic chip was pressed vertically against the center of a hind paw of the mouse from below the rack; when the mouse behaved to withdraw the hind leg, the automatically measured value was read. […]
(§2) With the day of completion of ICS loading as P1, pain threshold values were measured on P3, P5, P12 and P19.

PLA2 [1] = assay: Thermal nociception test (Hargreaves) in ICS stress mice given BEL i.c.v.; conditions: between P1 and P5, significant change at P3, two doses
Description: (§3) As a PLA2 inhibitor, Bromoenol lactone (Cayman chemical) was used. Drug administration was performed twice in total at 10 a.m. before performing repeated cold stimulation in stress loading (FIG. 9A).
(§4) The whole amount of 5 mg of the drug was dissolved in 200 μl of DMSO and dispensed at 20 nmol/10 μl. 384 μl of artificial cerebro-spinal fluid was added thereto. For a control group, the same amounts of DMSO and artificial cerebro-spinal fluid were mixed and administered. Using a 50 μl Hamilton microsyringe and a needle-equipped cannula, a total volume of 5 μl was given by intracerebroventricular administration. A 26-gauge needle for intracerebroventricular administration was used.
(§5) To create a mouse model of fibromyalgia, ICS (Intermittent Cold Stress) was loaded. […]
Prior to the experiment, each mouse was placed on a glass plate and covered with a cage from above, and the animal was acclimated to the same environment as the experiment for not less than 1 hour. A thermal stimulus was given to a hind paw of the mouse; when the mouse behaved to escape the stimulus, the automatically measured value was read. […]
as §2

PLA2 [2] = assay: Mechanical nociception test (automated digitized von Frey) in ICS stress mice given BEL i.c.v.; conditions: between P1 and P5, significant change at P3, two doses
Description: as §3, §4, §5, §1, §2

[3] = SART (ICS) stress loading group
[4] = SART (ICS) stress loading group, day 1 of stress loading, 10 μg i.c.v. once daily
[5] = SART (ICS) stress loading group, day before stress loading, 10 μg i.c.v. once daily
[6] = treated normal control group (no stress), day 1 of stress loading
[7] = SART (ICS) stress loading group, pretreated i.c.v.

5′-CGATACACTAGAACGCTCGA-3′ (DNA, backbone and methylation of C not given here) [MS-ODN]
persistence of hypersensitive response (LPA2 receptor; [3]): at least 19 days
pain threshold value (PWT) (LPA2 receptor; [4]): 5.79 ± 0.1 g
pain threshold value (PWT) (LPA2 receptor; [5]): 9.58 ± 0.3 g
pain threshold value (PWT) (LPA2 receptor; [6]): 9.65 ± 0.3 g
persistence of hypersensitive response (LPA1 receptor; [3]): at least 19 days
pain threshold value (PWT) (LPA1 receptor; [4]): 5.68 ± 0.7 g
pain threshold value (PWT) (LPA1 receptor; [5]): 9.59 ± 0.3 g
pain threshold value (PWT) (LPA1 receptor; [6]): 9.49 ± 0.2 g

5′-AGCTGCCATGACAGTGCTGT-3′ (DNA, backbone and methylation of C not given here) [LPA1 AS-ODN]
pain threshold value (PWT) (LPA1 receptor; [4]): 8.76 ± 0.5 g
pain threshold value (PWT) (LPA1 receptor; [5]): 9.77 ± 0.4 g
hypersensitive response / chronic pain after SART (ICS) stress, measured over days (LPA1 receptor; [7]): no hypersensitive responses were noted; also recorded: suppressed
threshold values of treated normal control group versus Vehicle and LPA1 MS-ODN groups (LPA1 receptor; normal control group (no stress)): comparable

5′-GTTCTCGCAGTCGCAGGAGT-3′ (DNA GTTCTCGCAGTCGCAGGAGT; listed as DNA, chemistry not given here) [ATX-MS, ATX missense control oligonucleotide]
mechanical nociceptive response threshold values after ICS stress loading (ATX): significant reductions

O=C1O/C(=C/Br)CCC1c1cccc2ccccc12 (stereo not shown) [BEL, Bromoenol lactone]
thermal hyperalgesia due to ICS stress (PLA2 [1]): tended to be suppressed
reductions of mechanical nociceptive response threshold values due to ICS stress (PLA2 [2]): tended to be suppressed

5′-TACTACAACGAGACCATCGG-3′ (DNA, backbone and methylation of C not given here) [LPA2 AS-ODN]
persistence of hypersensitive response (LPA2 receptor; [3]): at least 19 days
pain threshold value (PWT) (LPA2 receptor; [4]): 6.43 ± 0.1 g
pain threshold value (PWT) (LPA2 receptor; [5]): 9.77 ± 0.5 g
suppression of SART (ICS) stress-induced pains (LPA2 receptor; [7]): no suppression
